From patent US6849599B2, “Combination drug therapy” (priority 2000, dated 2005)

How the values were obtained:
[1] = tested on: HT29 cells; assay: Tumor growth in nude mice bearing xenografts of human colon tumor cell line HT29; format: in vivo; conditions: for Treated tumor size/Control tumor size (T/C): p<0.05
Experimental: The antineoplastic activity of TSP plus CPT-11 was evaluated in an art-recognized model for cancer, nude mice bearing xenografts of the human colon tumor cell line HT29.

[2] = Toxicity and mortality in the treated HT29 xenograft nude mice; format: in vivo
Experimental: For in vivo studies, nude mice were inoculated subcutaneously in the left axillary region with 5×10^6 HT29 cells. When tumors were palpable (approximately 50 mg), mice were divided into groups (n=15-22) and treated as follows: (i) no treatment; (ii) TSP alone (5-40 mg/kg intraperitoneally) (iii) CPT-11 alone (100-300 mg/kg intraperitoneally); or (iv) TSP (20 mg/kg)+CPT-11 (150 mg/kg). TSP was injected daily while CPT-11 was administered on days 0, 7, 14, and 21. Mice were weighed and tumors measured twice weekly. […] Treated tumor size/Control tumor size (T/C) equaled 0.64 or 0.57, respectively. […] When TSP was combined with CPT-11, a highly significant inhibition of tumor growth was observed compared to control (T/C=0.1, with p=0.00002) and compared to CPT-11 alone (p=0.0008).

CCc1c2c(nc3ccc(OC(=O)N4CCC(N5CCCCC5)CC4)cc13)-c1cc3c(c(=O)n1C2)COC(=O)[C@]3(O)CC [CPT-11, 7-ethyl-10-[4-(1-piperidino)-1-piperidino]-carbonloxycamptothecin]
average T/C ([1]; CPT-11 alone, all doses (100-300 mg/kg intraperitoneally, days 0, 7, 14, 21), day 28, p<0.001): 0.3
Toxicity and mortality ([2]; CPT-11 alone at 250 mg/kg intraperitoneally): induced significant toxicity and mortality
Toxicity and mortality ([2]; CPT-11 alone at 300 mg/kg intraperitoneally): induced significant toxicity and mortality

Thrombospondin-1 [TSP]
Treated tumor size/Control tumor size (T/C) ([1]; TSP alone 10 mg/kg intraperitoneally daily, day 28): 0.64
Treated tumor size/Control tumor size (T/C) ([1]; TSP alone 20 mg/kg intraperitoneally daily, day 28): 0.57
Inhibition of tumor growth, other doses ([1]; TSP alone, other doses of 5-40 mg/kg intraperitoneally daily, compared with 10 or 20 mg/kg): less effective
